The values below come from EP4745136A1, “PROTEIN TYROSINE PHOSPHATASE INHIBITOR, COMPOSITION COMPRISING SAME, AND MEDICAL USE THEREOF” (Shenzhen Zhongge Biological Technology Co., Ltd., priority 2023, dated 2025).

In one assay the target is T1, PTPN2 (Homo sapiens, UniProt P17706).
T1 construct: purchased Sino biological 10570-H20B
T1 sequence (P17706 1-415): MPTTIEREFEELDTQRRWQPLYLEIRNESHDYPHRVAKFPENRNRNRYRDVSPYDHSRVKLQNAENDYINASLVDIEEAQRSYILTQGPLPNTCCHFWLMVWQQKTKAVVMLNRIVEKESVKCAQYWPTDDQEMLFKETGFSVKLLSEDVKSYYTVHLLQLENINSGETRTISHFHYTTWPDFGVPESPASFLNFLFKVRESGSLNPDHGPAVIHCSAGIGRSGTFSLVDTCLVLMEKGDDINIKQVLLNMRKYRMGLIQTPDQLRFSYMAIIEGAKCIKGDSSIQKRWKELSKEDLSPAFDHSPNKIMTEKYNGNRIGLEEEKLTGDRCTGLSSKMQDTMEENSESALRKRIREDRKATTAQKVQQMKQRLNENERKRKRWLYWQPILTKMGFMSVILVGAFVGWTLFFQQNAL
The assay can be described thus: PTPN2 inhibitory activity assay (HTRF). The assay is classed as biochemical. The note with it: PTPN2 final concentration 1 nM, substrate 1 µM, 40 min at room temperature. How it is done: The present invention employs HTRF assay to characterize the inhibitory activity of compounds against PTPN2. The specific experimental process was as follows: compounds were transferred to a 384-well plate (PE# 6007290) using ECHO, and enzymatic reaction buffer (50 mM HEPES pH 7.5, 10 mM EDTA,0.01% Tween 20, 2 mM DTT) was prepared. PTPN2 (Sino biological #10570-H20B) was diluted in the reaction buffer, PTPN2 (final concentration 1 nM) was added and incubated with the compound at room temperature for 10 min, then the substrate (final concentration 1 µM) (biotin-(NH-CH2-CH2-O-CH2-CH2-O-CH2-CO)-T-R-D-I-(PY)-E-T-D-Y-Y-R-K-K-NH2) (Genscript) was added, and the reaction was terminated by adding a quencher after incubation at room temperature for 40 min. A final concentration of 10 nM Eu-anti-P (PY20) antibody (Cisbio#AD0066) and 15 nM APC-Streptavidin (Cisbio#AD0201) was added and incubated at room temperature for 1 hour. The fluorescence values of the reacted 384-well plates were read at 620 nm and 665 nm using Envision, and the IC50 value of inhibiting PTPN2 enzyme activity (PTPN 2 IC50) was fitted by nonlinear regression analysis of a four-parameter logistic equation.
A general note: In TR-FRET formats the signal depends on donor and acceptor labels being close together.

The subject of a further assay is B16F10 cells. Description: B16F10 mIFNγ-induced cell growth inhibition assay (CTG). Type of assay: cell-based. The protocol: 40 µL (150 cells/well) of B16F10 cells (source ATCC Cat#CRL-6475) were inoculated into a 384-well plate, and the compounds were transferred to the 384-well plate containing cells using EHCO. One group of cells was added with 10 µL of complete medium (RPMI 1640 medium+10% FBS) without mIFNγ, one group was added with 10 µL of complete medium containing mIFNγ (source R&D Cat#485-MI/CF, final concentration 25 ng/ml), and different concentrations of compounds (DMSO content 0.5%) were added to the reaction system. The cell culture plates were incubated at 37 °C in 5% CO2 for 96 h. 25 µL of CTG was added, Envision was used for reading, the cell growth inhibition IC50 value (Cell IC50) was fitted by nonlinear regression analysis using a four-parameter logistic equation with DMSO/mIFNγ as the negative control and [drawing 152] as the positive control.

[1] abbreviates: Mus musculus, B16-F10, 96 h, B16F10 cells with mIFNγ final concentration 25 ng/ml, CTG readout.
Where [2] appears, read: B16F10 cells with mIFNγ final concentration 25 ng/ml, 96 h, CTG readout.
Where [3] appears, read: Mus musculus, B16-F10; B16F10 cells with mIFNγ final concentration 25 ng/ml, 96 h, CTG readout.

For orientation: IC50 means the concentration needed to halve the response being measured. Low readings indicate greater potency in that assay, high ones weaker potency in that assay. The term GI50 denotes the concentration that inhibits growth by half. Lower therefore signals greater sensitivity of the cells. In turn, `CC(C)CCNCC1Cc2cc(O)c(N3CC(=O)NS3(=O)=O)c(F)c2/C1=C/F` (racemic) [Compound 4] came in with an IC50 against PTPN2 of at most 0.02 µM. Further, in the assay with B16F10 cells (setting [1]), the GI50 lay within 1 to 10 µM.

`CC(C)CCNCC1Cc2cc(O)c(N3CC(=O)NS3(=O)=O)c(F)c2/C1=C\F` (racemic) [Compound 7] registered an IC50 against PTPN2 of 0.02 to 0.1 µM. Further, the GI50 in the assay on B16F10 cells (setting [1]) is 10 to 100 µM.

For the compound `CC(C)CCN[C@H]1Cc2c(cc(O)c(N3CC(=O)NS3(=O)=O)c2F)C2CC21` (single isomer, unassigned) [Compound 2], the IC50 against PTPN2 was in the range of 0.1 to 0.5 µM. For the same compound, in the assay with B16F10 cells (setting [2]), the GI50 fell in the range of 10 to 100 µM.

With `CC(C)CCN[C@H]1Cc2c(cc(O)c(N3CC(=O)NS3(=O)=O)c2F)C2CC21` (single isomer, unassigned) [Compound 3], the half-inhibitory concentration (IC50) at PTPN2 was at most 0.02 µM. Besides, the 50% growth inhibitory concentration (GI50) in the assay with B16F10 cells (setting [2]) was at most 1 µM.

In the case of `CC(C)CCNCC1Cc2cc(O)c(N3CC(=O)NS3(=O)=O)c(F)c2/C1=C/F` (single isomer, unassigned) [Compound 5], the IC50 against PTPN2 is 0.1 to 0.5 µM. Further, in the assay with B16F10 cells (setting [2]), the GI50 was 10 to 100 µM.

Take `CC(C)CCNCC1Cc2cc(O)c(N3CC(=O)NS3(=O)=O)c(F)c2/C1=C/F` (single isomer, unassigned) [Compound 6]: on PTPN2, the IC50 was at most 0.02 µM. In the assay with B16F10 cells (setting [2]), this compound gave a GI50 of at most 1 µM.

Regarding `CC(C)CCN[C@H]1Cc2c(cc(O)c(N3CC(=O)NS3(=O)=O)c2F)C2CC21` (some centres unmarked) [Compound 1], the half-inhibitory concentration (IC50) against PTPN2 is at most 0.02 µM. Further, the GI50 in the assay with B16F10 cells (setting [1]) lay within 1 to 10 µM.

On PTPN2, `O=C1CN(c2c(O)cc3c(c2F)C[C@H](NCCCC(F)(F)F)C2CC32)S(=O)(=O)N1` (some centres unmarked) [Compound 8] gave an IC50 of at most 0.02 µM. Further, the 50% growth inhibitory concentration (GI50) with B16F10 cells (setting [1]) was at most 1 µM.

On to `CC(C)(CCN[C@H]1Cc2c(cc(O)c(N3CC(=O)NS3(=O)=O)c2F)C2CC21)C(F)(F)F` (some centres unmarked) [Compound 9], for which, on PTPN2, the half-inhibitory concentration (IC50) is at most 0.02 µM. In the assay with B16F10 cells (setting [1]), this compound had a GI50 of 1 to 10 µM.

Compound `CC(C)(C)CCN[C@H]1Cc2c(cc(O)c(N3CC(=O)NS3(=O)=O)c2F)C2CC21` (some centres unmarked) [Compound 10] yielded an IC50 against PTPN2 of at most 0.02 µM. This compound also showed a GI50 with B16F10 cells (setting [3]) of 1 to 10 µM.

Compound `O=C1CN(c2c(O)cc3c(c2F)C[C@H](NCCC2CCCCC2)C2CC32)S(=O)(=O)N1` (some centres unmarked) [Compound 11] displayed an IC50 against PTPN2 of at most 0.02 µM. The same compound showed a concentration for 50% growth inhibition (GI50) in the assay with B16F10 cells (setting [3]) of 10 to 100 µM.

The compound `O=C1CN(c2c(O)cc3c(c2F)C[C@H](NCC2CCCCO2)C2CC32)S(=O)(=O)N1` (some centres unmarked) [Compound 16] had a half-inhibitory concentration (IC50) at PTPN2 of 0.1 to 0.5 µM. For the same compound, in the assay with B16F10 cells (setting [3]), the concentration for 50% growth inhibition (GI50) fell in the range of 1 to 10 µM.

At PTPN2, `O=C1CN(c2c(O)cc3c(c2F)C[C@H](NCCC2CCCC2)C2CC32)S(=O)(=O)N1` (some centres unmarked) [Compound 17] yielded an IC50 of at most 0.02 µM. Moreover, the 50% growth inhibitory concentration (GI50) with B16F10 cells (setting [3]) is 1 to 10 µM.
